Experimental data as given in publication PMC3177605 (Bioorganic & medicinal chemistry letters, 2009).

Key:
mGluR5 [1] = biological target: mGluR5 (Rattus norvegicus, UniProt P31424); test: functional mGluR5 antagonist assay; type: cell-based
mGluR5 [2] = test: functional mGluR5 antagonist assay; type: cell-based; settings: for IC50 in functional HTS: identified from the functional HTS

Sequence of mGluR5 (P31424 21-1203): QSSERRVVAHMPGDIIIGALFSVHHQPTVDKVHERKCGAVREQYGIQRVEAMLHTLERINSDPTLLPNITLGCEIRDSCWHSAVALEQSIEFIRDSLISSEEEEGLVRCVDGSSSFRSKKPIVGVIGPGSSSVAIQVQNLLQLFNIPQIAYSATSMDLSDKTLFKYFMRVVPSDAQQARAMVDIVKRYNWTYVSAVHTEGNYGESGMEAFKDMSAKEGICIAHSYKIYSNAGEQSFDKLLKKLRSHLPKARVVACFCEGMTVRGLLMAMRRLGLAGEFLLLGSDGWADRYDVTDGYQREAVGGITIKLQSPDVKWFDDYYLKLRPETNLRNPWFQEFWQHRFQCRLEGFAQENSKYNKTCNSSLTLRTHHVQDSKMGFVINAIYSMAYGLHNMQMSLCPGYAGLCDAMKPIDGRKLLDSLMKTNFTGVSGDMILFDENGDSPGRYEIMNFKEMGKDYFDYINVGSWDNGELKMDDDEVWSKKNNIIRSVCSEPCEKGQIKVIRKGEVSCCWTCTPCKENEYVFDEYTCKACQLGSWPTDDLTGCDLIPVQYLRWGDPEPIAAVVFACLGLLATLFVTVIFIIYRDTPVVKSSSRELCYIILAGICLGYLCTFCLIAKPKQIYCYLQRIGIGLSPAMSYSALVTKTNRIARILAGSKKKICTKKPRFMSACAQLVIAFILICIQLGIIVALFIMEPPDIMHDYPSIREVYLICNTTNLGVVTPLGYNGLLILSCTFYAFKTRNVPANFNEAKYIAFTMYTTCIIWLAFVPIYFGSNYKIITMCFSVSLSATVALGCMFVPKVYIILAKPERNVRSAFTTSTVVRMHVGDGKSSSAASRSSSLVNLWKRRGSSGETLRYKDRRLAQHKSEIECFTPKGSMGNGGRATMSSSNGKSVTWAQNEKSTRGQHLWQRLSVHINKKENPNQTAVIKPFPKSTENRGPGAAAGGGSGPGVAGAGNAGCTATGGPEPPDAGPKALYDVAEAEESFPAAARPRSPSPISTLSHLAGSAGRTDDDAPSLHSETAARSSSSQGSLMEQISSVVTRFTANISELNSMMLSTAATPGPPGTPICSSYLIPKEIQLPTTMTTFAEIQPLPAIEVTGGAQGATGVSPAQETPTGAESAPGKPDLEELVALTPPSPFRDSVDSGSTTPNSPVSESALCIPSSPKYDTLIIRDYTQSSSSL
Sequence of mGluR5 (Rattus norvegicus, UniProt P31424) (P31424 21-1203): as above

## Cc1cc(C)c2c(N)c(C(=O)c3ccc(F)cc3)oc2n1 [Cmpd 12, (3-amino-4,6-dimethylfuro[2,3-b]pyridine-2-yl)(4-fluorophenyl)methanone]
mGluR5 [1]; read-out: mGluR5 IC50, newly synthesized material
  IC50: 150 nM
mGluR5 [1]; upon resynthesis
  % Glu Max: 1.39%

## O=C(c1ccco1)N1CCCC2(CCCCC2)C1 [Cmpd 10]
mGluR5 [2]
  IC50 in functional HTS: submicromolar

## O=C(N1CCN(c2ccncc2)CC1)C12CC3CC(CC(C3)C1)C2 [Cmpd 20b]
mGluR5 [2]
  mGluR5 inhibitory activity: loses all mGluR5 inhibitory activity

## O=C(N1CCN(c2ccccn2)CC1)C12CC3CC(CC(C3)C1)C2 [Cmpd 11]
mGluR5 [2]
  IC50 in functional HTS: submicromolar
